Among the data in patent US9272990B2, “Lysophosphatidic acid receptor antagonists and their use in the treatment fibrosis” (AMIRA PHARMACEUTICALS, INC., priority 2010, dated 2016) are IC50 values, retold here.

For the assay, the target named is T1, Human LPA1 (Homo sapiens, UniProt Q92633).
T1 construct: the full-length cDNA for human LPA1 was obtained by PCR of the reverse transcription reaction; expressed in transfected cells
T1 sequence (Q92633 whole entry): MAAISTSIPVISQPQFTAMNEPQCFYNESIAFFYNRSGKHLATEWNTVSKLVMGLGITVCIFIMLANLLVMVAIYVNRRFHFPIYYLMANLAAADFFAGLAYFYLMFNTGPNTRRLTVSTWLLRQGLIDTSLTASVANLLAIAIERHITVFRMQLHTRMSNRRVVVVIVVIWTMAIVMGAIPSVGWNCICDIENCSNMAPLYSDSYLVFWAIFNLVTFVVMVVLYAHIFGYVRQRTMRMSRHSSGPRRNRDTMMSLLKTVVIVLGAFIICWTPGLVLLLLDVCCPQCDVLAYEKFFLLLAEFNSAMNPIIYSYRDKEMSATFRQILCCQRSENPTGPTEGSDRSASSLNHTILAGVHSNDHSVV
The experiment in a line: LPA1 calcium flux assay. The format is cell-based. As to conditions: CHO cells expressing human LPA1, stimulated with 10 nM LPA; read-out: LPA1 Ca^2+ flux. The method, then:
A 1.1 kb cDNA encoding the human LPA1 receptor was cloned from human lung. Human lung RNA (Clontech Laboratories, Inc. USA) was reverse transcribed using the RETROSCRIPT® kit (Ambion, Inc.) and the full-length cDNA for human LPA1 was obtained by PCR of the reverse transcription reaction. The nucleotide sequence of the cloned human LPA1 was determined by sequencing and confirmed to be identical to the published human LPA1 sequence (An et al., Biochem. Biophys. Res. Commun. 231:619 (1997). The cDNA was cloned into the pcDNA5/FRT expression plasmid and transfected in CHO cells using Lipofectamine 2000 (Invitrogen Corp., USA). Clones stably expressing human LPA1 were selected using hygromycin and identified as cells that show Ca-influx in response to LPA.
Human LPA1 or LPA3 expressing CHO cells are seeded at 20,000-45,000 cells per well in a 96-well poly-D-lysine coated plate one or two days before the assay. Prior to the assay, the cells are washed once with PBS and then cultured in serum-free media overnight. On the day of the assay, a calcium indicator dye (Calcium 4, Molecular Devices) in assay buffer (HBSS with Ca^2+ and Mg^2+ and containing 20 mM Hepes and 0.3% fatty-acid free human serum albumin) is added to each well and incubation continued for 1 hour at 37° C. 10 μl of test compounds in 2.5% DMSO are added to the cells and incubation continued at room temperature for 30 minutes. Cells are the stimulated by the addition of 10 nM LPA and intracellular Ca^2+ measured using the FLEXSTATION® 3 (Molecular Devices). IC50s are determined using Graphpad prism analysis of drug titration curves.
Consider `O=C(O)C1(c2ccc(-c3ccc(-c4sccc4C(O)CCCc4ccccc4)cc3)cc2)CC1` (single isomer, unassigned) [Compound 1-26, 1-{4′-[3-(1-hydroxy-4-phenyl-butyl)-thiophen-2-yl]-biphenyl-4-yl}-cyclopropanecarboxylic acid], for which the IC50 is < 300 nM.

For the compound `O=C(O)C1(c2ccc(-c3ccc(-c4sccc4C(O)CCCc4ccccc4)cc3)cc2)CC1` (single isomer, unassigned) [Compound 1-27, 1-{4′-[3-(1-hydroxy-4-phenyl-butyl)-thiophen-2-yl]-biphenyl-4-yl}-cyclopropanecarboxylic acid], the IC50 is < 300 nM.

For `C[C@@H](OC(=O)Nc1ccccc1-c1ccc(-c2ccc(C3(C(=O)O)CC3)cc2)cc1)c1ccccc1` [Compound 1-2, 1-[2″-((R)-1-phenyl-ethoxycarbonylamino)-[1,1′;4′,1″]terphenyl-4-yl]-cyclopropanecarboxylic acid], the IC50 is < 300 nM.

In the case of `C[C@@H](OC(=O)Nc1cnccc1-c1ccc(-c2ccc(C3(C(=O)O)CC3)cc2)cc1)c1ccccc1` [Compound 1-3, 1-{4′-[3-((R)-1-phenyl-ethoxycarbonylamino)-pyridin-4-yl]-biphenyl-4-yl}-cyclopropanecarboxylic acid], the IC50 was in the range of 300 to 1000 nM.

With `C[C@@H](OC(=O)Nc1ncoc1-c1ccc(-c2ccc(C3(C(=O)O)CC3)cc2)cc1)c1ccccc1` [Compound 1-4, 1-{4′-[4-((R)-1-phenyl-ethoxycarbonylamino)-oxazol-5-yl]-biphenyl-4-yl}-cyclopropanecarboxylic acid], the IC50 was < 300 nM.

As to `O=C(O)C1(c2ccc(-c3ccc(-c4ncccc4C(O)CCCc4ccccc4)cc3)cc2)CC1` (centres unmarked) [Compound 1-5, 1-{4′-[3-(1-hydroxy-4-phenyl-butyl)-pyridin-2-yl]-biphenyl-4-yl}-cyclopropanecarboxylic acid], the IC50 was < 300 nM.

With `O=C(O)C1(c2ccc(-c3ccc(-c4ccsc4C(O)CCCc4ccccc4)cc3)cc2)CC1` (centres unmarked) [Compound 1-6, 1-{4′-[2-(1-hydroxy-4-phenyl-butyl)-thiophen-3-yl]-biphenyl-4-yl}-cyclopropanecarboxylic acid], the IC50 is < 300 nM.

For the compound `O=C(O)C1(c2ccc(-c3ccc(-c4ccccc4C(O)CCCc4ccccc4)cc3)cc2)CC1` (centres unmarked) [Compound 1-7, 1-[2-(1-hydroxy-4-phenyl-butyl)-[1,1′;4′,1″]terphenyl-4″-yl]-cyclopropanecarboxylic acid], the IC50 is < 300 nM.

As to `O=C(O)CC1(c2ccc(-c3ccc(-c4ccncc4C(O)CCCc4ccccc4)cc3)cc2)CC1` (centres unmarked) [Compound 1-8, (1-{4′-[3-(1-hydroxy-4-phenyl-butyl)-pyridin-4-yl]-biphenyl-4-yl}-cyclopropyl)-acetic acid], the IC50 was in the range of 300 to 1000 nM.

With `O=C(O)C1(c2ccc(-c3ccc(-c4ccncc4C(O)CCCc4ccccc4)cc3)cc2)CC1` (centres unmarked) [Compound 1-9, 1-{4′-[3-(1-Hydroxy-4-phenyl-butyl)-pyridin-4-yl]-biphenyl-4-yl}-cyclopropanecarboxylic acid], the IC50 was < 300 nM.

On to `Cn1ncc(-c2ccc(-c3ccc(C4(CC(=O)O)CC4)cc3)cc2)c1C(O)CCCc1ccccc1` (centres unmarked) [Compound 1-10, (1-{4′-[5-(1-hydroxy-4-phenyl-butyl)-1-methyl-1H-pyrazol-4-yl]-biphenyl-4-yl}-cyclopropyl)-acetic acid], for which the IC50 is < 300 nM.

For the compound `Cn1ncc(-c2ccc(-c3ccc(C4(C(=O)O)CC4)cc3)cc2)c1C(O)CCCc1ccccc1` (centres unmarked) [Compound 1-11, 1-{4′-[5-(1-hydroxy-4-phenyl-butyl)-1-methyl-1H-pyrazol-4-yl]-biphenyl-4-yl}-cyclopropanecarboxylic acid], the IC50 was < 300 nM.

`O=C(O)CC1(c2ccc(-c3ccc(-c4ncccc4C(O)CCCc4ccccc4)cc3)cc2)CC1` (centres unmarked) [Compound 1-12, (1-{4′-[3-(1-hydroxy-4-phenyl-butyl)-pyridin-2-yl]-biphenyl-4-yl}-cyclopropyl)-acetic acid]: the IC50 was < 300 nM.

With `O=C(O)CC1(c2ccc(-c3ccc(-c4ccsc4C(O)CCCc4ccccc4)cc3)cc2)CC1` (centres unmarked) [Compound 1-13, (1-{4′-[2-(1-hydroxy-4-phenyl-butyl)-thiophen-3-yl]-biphenyl-4-yl}-cyclopropyl)-acetic acid], the IC50 is < 300 nM.

For `O=C(O)CC1(c2ccc(-c3ccc(-c4cscc4C(O)CCCc4ccccc4)cc3)cc2)CC1` (centres unmarked) [Compound 1-14, (1-{4′-[4-(1-hydroxy-4-phenyl-butyl)-thiophen-3-yl]-biphenyl-4-yl}-cyclopropyl)-acetic acid], the IC50 was < 300 nM.

In the case of `O=C(O)C1(c2ccc(-c3ccc(-c4cscc4C(O)CCCc4ccccc4)cc3)cc2)CC1` (centres unmarked) [Compound 1-15, 1-{4′-[4-(1-hydroxy-4-phenyl-butyl)-thiophen-3-yl]-biphenyl-4-yl}-cyclopropanecarboxylic acid], the IC50 is < 300 nM.

As for `O=C(O)C1(c2ccc(-c3ccc(-c4ncc5ccccc5c4C(O)CCCc4ccccc4)cc3)cc2)CC1` (centres unmarked) [Compound 1-16, 1-{4′-[4-(1-hydroxy-4-phenyl-butyl)-isoquinolin-3-yl]-biphenyl-4-yl}-cyclopropanecarboxylic acid], the IC50 fell in the range of 1000 to 10000 nM.

As for `O=C(O)C1(c2ccc(-c3ccc(-c4cnccc4C(O)CCCc4ccccc4)cc3)cc2)CC1` (centres unmarked) [Compound 1-17, 1-{4′-[4-(1-hydroxy-4-phenyl-butyl)-pyridin-3-yl]-biphenyl-4-yl}-cyclopropanecarboxylic acid], the IC50 was < 300 nM.

`O=C(O)C1(c2ccc(-c3ccc(-c4sccc4C(O)CCCc4ccccc4)cc3)cc2)CC1` (centres unmarked) [Compound 1-18, 1-{4′-[3-(1-hydroxy-4-phenyl-butyl)-thiophen-2-yl]-biphenyl-4-yl}-cyclopropanecarboxylic acid]: the IC50 is < 300 nM.

With `O=C(O)CC1(c2ccc(-c3ccc(-c4sccc4C(O)CCCc4ccccc4)cc3)cc2)CC1` (centres unmarked) [Compound 1-19, (1-{4′-[3-(1-hydroxy-4-phenyl-butyl)-thiophen-2-yl]-biphenyl-4-yl}-cyclopropyl)-acetic acid], the IC50 is < 300 nM.

Consider `Cn1ncc(-c2ccc(-c3ccc(C4(C(=O)O)CC4)cc3)cc2)c1Nc1cccc(-c2ccccc2)n1` [Compound 1-20, 1-{4′-[1-methyl-5-(6-phenyl-pyridin-2-ylamino)-1H-pyrazol-4-yl]-biphenyl-4-yl}-cyclopropanecarboxylic acid], for which the IC50 is < 300 nM.

With `CC(CCc1ccc(Cl)cc1)Nc1c(-c2ccc(-c3ccc(C4(C(=O)O)CC4)cc3)cc2)cnn1C` (centres unmarked) [Compound 1-21, 1-(4′-{5-[3-(4-chloro-phenyl)-1-methyl-propylamino]-1-methyl-1H-pyrazol-4-yl}-biphenyl-4-yl)-cyclopropanecarboxylic acid], the IC50 is < 300 nM.

In the case of `Cn1ncc(-c2ccc(-c3ccc(C4(C(=O)O)CC4)cc3)cc2)c1C(O)c1cn(Cc2ccccc2)nn1` (centres unmarked) [Compound 1-22, 1-(4′-{5-[(1-benzyl-1H-[1,2,3]triazol-4-yl)-hydroxy-methyl]-1-methyl-1H-pyrazol-4-yl}-biphenyl-4-yl)-cyclopropanecarboxylic acid], the IC50 is < 300 nM.

Turning to `CCn1ncc(-c2ccc(-c3ccc(C4(C(=O)O)CC4)cc3)cc2)c1C(O)CCCc1ccccc1` (centres unmarked) [Compound 1-23, 1-{4′-[1-ethyl-5-(1-hydroxy-4-phenyl-butyl)-1H-pyrazol-4-yl]-biphenyl-4-yl}-cyclopropanecarboxylic acid], the IC50 is < 300 nM.

`CCn1ncc(-c2ccc(-c3ccc(C4(CC(=O)O)CC4)cc3)cc2)c1C(O)CCCc1ccccc1` (centres unmarked) [Compound 1-24, (1-{4′-[1-ethyl-5-(1-hydroxy-4-phenyl-butyl)-1H-pyrazol-4-yl]-biphenyl-4-yl}-cyclopropyl)-acetic acid]: the IC50 is < 300 nM.

`Cn1ncc(-c2ccc(-c3ccc(C4(C(=O)O)CC4)cc3)cc2)c1NCc1cnc(-c2ccccc2)s1` [Compound 1-25, 1-(4′-{1-methyl-5-[(2-phenyl-thiazol-5-ylmethyl)-amino]-1H-pyrazol-4-yl}-biphenyl-4-yl)-cyclopropanecarboxylic acid]: the IC50 fell in the range of 1000 to 10000 nM.
